These results are taken from patent US20230150929A1, “SELECTIVE NON-CYCLIC NUCLEOTIDE ACTIVATORS FOR THE CAMP SENSOR EPAC1” (The Board of Regents of The University of Texas System, priority 2020, published 2023).

The target in test [1] is T1, EPAC1 (Homo sapiens, UniProt O95398).
T1 sequence (O95398 1-923): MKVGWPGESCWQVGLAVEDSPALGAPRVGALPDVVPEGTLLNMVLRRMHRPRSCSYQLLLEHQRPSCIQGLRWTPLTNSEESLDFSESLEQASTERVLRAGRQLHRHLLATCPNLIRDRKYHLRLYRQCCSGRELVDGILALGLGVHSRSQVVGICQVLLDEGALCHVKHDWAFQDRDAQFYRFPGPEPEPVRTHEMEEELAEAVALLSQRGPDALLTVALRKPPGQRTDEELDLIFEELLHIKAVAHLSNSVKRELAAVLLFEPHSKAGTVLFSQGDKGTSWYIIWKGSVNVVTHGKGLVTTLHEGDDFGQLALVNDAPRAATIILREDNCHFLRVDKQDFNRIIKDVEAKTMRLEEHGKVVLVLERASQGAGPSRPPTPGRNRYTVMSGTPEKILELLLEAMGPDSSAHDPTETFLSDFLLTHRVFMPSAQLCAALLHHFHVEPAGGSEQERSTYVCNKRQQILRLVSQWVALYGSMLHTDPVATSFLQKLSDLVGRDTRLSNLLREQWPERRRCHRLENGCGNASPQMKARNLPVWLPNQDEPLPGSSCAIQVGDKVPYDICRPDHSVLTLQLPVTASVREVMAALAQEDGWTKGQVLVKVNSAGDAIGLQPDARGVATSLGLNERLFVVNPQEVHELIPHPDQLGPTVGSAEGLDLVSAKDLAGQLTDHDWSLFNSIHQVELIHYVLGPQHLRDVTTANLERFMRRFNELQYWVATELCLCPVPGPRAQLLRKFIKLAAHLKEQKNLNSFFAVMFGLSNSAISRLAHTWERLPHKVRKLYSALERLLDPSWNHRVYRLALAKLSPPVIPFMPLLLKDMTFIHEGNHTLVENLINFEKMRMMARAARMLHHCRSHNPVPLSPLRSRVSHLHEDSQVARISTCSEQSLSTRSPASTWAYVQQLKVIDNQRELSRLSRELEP
Nature of the test: Active Rap1 pull-down in U2OS cells stably transfected with EPAC1. The class given is cell-based. Set-up: expressed in transfected cells; host or cells: U2OS cells (from Professor Holger Rehmann, University of Utrecht). Particulars: U2OS-EPAC1, 100 µM compound, 10 min, FIG. 7. The method, then:
(§1) Series Expansion and EPAC1 vs EPAC2 Selectivity. GEF assay was used to further screen all newly synthesis analogues at 10 µM, to identify additional activating compounds to expand the series of EPAC1 agonists (FIG. 6). […] Having now identified an expanded exemplary series of compounds as potential EPAC1 activators the ability of 25e, 25f, 25g, 25n and 25u to activate EPAC1 and EPAC2 in cellular Rap1 activation assays (FIG. 7) were compared. For these U2OS cells transfected with either EPAC1 or EPAC2 (FIG. 7) was used. […] Densitometry was carried out on all immunoblots and the ratio of EPAC1 to EPAC2 activation was calculated and presented in a bar graph in FIG. 8.
Active Rap1 Pull-down. U2OS cells (from Professor Holger Rehmann, University of Utrecht) stably transfected with EPAC1 or EPAC2 were cultured in 6-well plates in DMEM, high glucose, supplemented with 10% (v/v) FBS, 1% (v/v) GlutaMAX, 1% (v/v) Penicillin-Streptomycin and 2 mg/l puromycin (to ensure selection of stable transfectants). 80% confluent cells were starved in culture medium with reduced FBS concentration (0.5 %) for 16 h and then stimulated for 10 min with either vehicle, 100 µM of studied compounds, or 50 µM of 2 in case of U2OS-EPAC1 or 100 µM of compound 4 for U2OS-EPAC2. Cells were then rinsed with ice-cold PBS and lysed in 0.5 ml cell lysis buffer (Cell Signaling Technologies) supplemented with 10 mM MgCl2 and 1 mM PMSF, followed by clearing the lysates by centrifugation. Cell lysates were incubated for 1 h (4° C., gentle agitation) with 40 µg GST-RalGDS-RBD immobilized on Glutathione Sepharose 4B (GE Healthcare) to selectively capture GTP-bound Rap1. Later on, the glutathione resin was separated from supernatant by centrifugation, washed three times with cell lysis buffer, then resuspended in 2x SDS sample loading buffer and denatured for 5 min at 95° C.
(§2) SDS-PAGE and Western Blotting. Samples were prepared by mixing equal volumes of cell lysate and 2x SDS sample loading buffer and denaturing for 5 min at 95° C., unless indicated otherwise. Protein samples were separated by SDS-PAGE on 10% (v/v) polyacrylamide gels, for EPAC1 and VASP, or on 12.5% (v/v), for Rap1, and then transferred to nitrocellulose membranes. Membranes were then blocked for 1 h at room temperature in 5% (w/v) non-fat dry milk or 5% (w/v) BSA in Tris-buffered saline containing 0.1% (v/v) Tween 20, followed by an overnight incubation with primary antibody diluted in blocking buffer at 4° C. Subsequently, the membranes were incubated with appropriate horseradish peroxidase-conjugated secondary antibodies for 1 h at room temperature. For signal detection the SuperSignal West Pico PLUS Chemiluminescent Substrate (Thermo Scientific) was used. Images were acquired using the Fusion FX7 camera platform (Vilber). Densitometry was performed with ImageJ.

In test [2] the test system is PKA. Nature of the test: PKA activation (VASP phosphorylation, western blot) in U2OS-EPAC1 cells. The class given is cell-based. The note with it: 100 µM test compound, FIG. 5. Here is the method: FIG. 5. PKA activation results of representative newly discovered EPAC1 agonists. U2OS cells stably transfected with EPAC1 were treated with 100 µM of test compounds, cyclic nucleotide EPAC1 agonist 2 or 10 µM of forskolin and rolipram (F/R), cyclic AMP elevating agents, as a positive control. Active, phosphorylated VASP (P-VASP) was visualized using a phospho-specific, anti-VASP antibody. None of the test compounds promoted VASP phosphorylation in cells.
PKA and GPCR Selectivity. To investigate the EPAC selectivity of these EPAC agonists, compounds 25g, 25n and 25q were selected for further PKA activation studies, and the results are shown in FIG. 5. PKA activation was assessed by monitoring phosphorylation state of a downstream PKA effector, vasodilator-stimulated phosphoprotein (VASP).
as §2
Background: In western blotting, separated proteins are transferred to a membrane and probed.

The target of test [3] is T2, EPAC1-CNBD (Homo sapiens, UniProt O95398).
T2 sequence (O95398 169-318 isoform O95398-3): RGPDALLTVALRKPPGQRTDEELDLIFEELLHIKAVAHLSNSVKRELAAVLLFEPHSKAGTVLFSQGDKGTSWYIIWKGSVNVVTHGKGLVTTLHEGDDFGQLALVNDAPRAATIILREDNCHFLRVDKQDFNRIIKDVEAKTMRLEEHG
The test is described as follows: 8-NBD-cAMP competition binding assay, EPAC1-CNBD. The note with it: for RFI (%) (relative fluorescence intensity), Table 4 / RFI (%) (relative fluorescence intensity), Table 2 / RFI (%) (relative fluorescence intensity), Table 1 / RFI (%) (relative fluorescence intensity), Table 3: compound 10 µM, EPAC1-CNBD 0.8 µM, 8-NBD-cAMP 62.5 nM, mean ± SEM, lower RFI = stronger binding; for EPAC1 binding potency / affinity in words: SAR comment on RFI, mostly relative to 3 or 9a.

In test [4] the target is T1, EPAC1. Nature of the test: In vitro GEF screen (EPAC1 activation assay). The class given is biochemical. Set-up: expressed in transfected cells; host or cells: U2OS cells (from Professor Holger Rehmann, University of Utrecht). The note with it: 10 µM, FIG. 6. Here is the method: FIGS. 6A-B. Identification of compounds including 25g (PW0381) 25q (PW0521) 25n (PW0577), 25u (PW0606), 25e (PW0624) and 25f (PW0625) as EPAC1 activators in an in vitro GEF screen. […] Selected compounds have been highlighted as indicated.
as §1

For the compound `Cc1cc(Nc2ncccc2C(F)(F)F)cc(S(=O)(=O)NC(=O)COc2ccc3ccccc3c2)c1` [Compound 25u, N-((3-Methyl-5-((3-(trifluoromethyl)pyridin-2-yl)amino)phenyl)sulfonyl)-2-(naphthalen-2-yloxy)acetamide], the “Rap1 activation in EPAC1 cells” value in test [1] is reported as “roughly equivalent to the positive control”. Moreover, the “PKA activation (VASP phosphorylation)” value in test [2] is “unable to activate PKA”. In addition, the “RFI (%) (relative fluorescence intensity), Table 4” value in test [3] is given as 56 ± 6%. Further, the “IC50 values as EPAC1 binders (in words)” value in test [3] (summary statement) is listed as “low micromolar to sub-micromolar”. Further, in test [4], the “EPAC1 activity in GEF assay” value is “promote EPAC1 activity more effectively than 25g, 25n and 25q”.

`Cc1ccc(S(=O)(=O)NC(=O)COc2ccc3[nH]ccc3c2)c(C)c1` [Compound 9r, 2-((1H-Indol-5-yl)oxy)-N-((2,4-dimethylphenyl)sulfonyl)acetamide]: the “RFI (%) (relative fluorescence intensity), Table 2” value in test [3] was 91 ± 2%.

Consider `Cc1cc(Br)cc(S(=O)(=O)NC(=O)COc2ccc3ccccc3c2)c1` [Compound 25j, N-((3-Bromo-5-methylphenyl)sulfonyl)-2-(naphthalen-2-yloxy)acetamide], for which the “RFI (%) (relative fluorescence intensity), Table 4” value in test [3] came to 58 ± 2%.

With `COc1ccc(OC)c(S(=O)(=O)NC(=O)COc2ccc3ccccc3c2)c1` [Compound 25h, N-((2,5-Dimethoxyphenyl)sulfonyl)-2-(naphthalen-2-yloxy)acetamide], the “RFI (%) (relative fluorescence intensity), Table 4” value in test [3] is reported as 72 ± 4%.

Take `Cc1cc(C)c(S(=O)(=O)NC(=O)CNc2cccc(Cl)c2)c(C)c1` [Compound 9h, 2-((3-Chlorophenyl)amino)-N-(mesitylsulfonyl)acetamide]: the “RFI (%) (relative fluorescence intensity), Table 1” value in test [3] is given as 88 ± 9%.

Take `Cc1cc(C)c(S(=O)(=O)NC(=O)CSc2ccc3ccccc3c2)c(C)c1` [Compound 12a, N-(Mesitylsulfonyl)-2-(naphthalen-2-ylthio)acetamide]: in test [3], the “EPAC1 binding potency / affinity in words” value is “completely inhibit EPAC binding potency” and the “RFI (%) (relative fluorescence intensity), Table 3” value is listed as 92 ± 2%.

`Cc1cc(C)c(S(=O)(=O)NC(=O)C(F)Oc2ccc3ccccc3c2)c(C)c1` (stereo not shown) [Compound 12e, 2-Fluoro-N-(mesitylsulfonyl)-2-(naphthalen-2-yloxy)acetamide]: the “RFI (%) (relative fluorescence intensity), Table 3” value in test [3] came out at 82 ± 4%.

For `Cc1cc(-c2ccco2)cc(S(=O)(=O)NC(=O)COc2ccc3ccccc3c2)c1` [Compound 25s, N-((3-(Furan-2-yl)-5-methylphenyl)sulfonyl)-2-(naphthalen-2-yloxy)acetamide], the “RFI (%) (relative fluorescence intensity), Table 4” value in test [3] amounted to 40 ± 1%.

Consider `O=C(COc1ccc2ccccc2c1)NS(=O)(=O)c1cccc(-c2ccoc2)c1` [Compound 25ab, N-3-(Furan-3-yl)phenylsulfonyl-2-(naphthalene-2-yloxy)acetamide], for which the “RFI (%) (relative fluorescence intensity), Table 4” value in test [3] came out at 53 ± 2%.

With `Cc1ccc(S(=O)(=O)NC(=O)COc2ccc3cc(Cl)ccc3c2)c(C)c1` [Compound 9n, 2-((6-Chloronaphthalen-2-yl)oxy)-N-((2,4-dimethylphenyl)sulfonyl)acetamide], the “RFI (%) (relative fluorescence intensity), Table 2” value in test [3] was 50 ± 2%.

Take `Cc1ccc(S(=O)(=O)NC(=O)COc2cccc3ccccc23)c(C)c1` [Compound 9q, N-((2,4-dimethylphenyl)sulfonyl)-2-(naphthalen-1-yloxy)acetamide]: in test [3], the “RFI (%) (relative fluorescence intensity), Table 2” value was determined as 71 ± 1%.

Take `O=C(COc1ccc2ccccc2c1)NS(=O)(=O)c1cccc([N+](=O)[O-])c1` [Compound 25x, 2-(Naphthalen-2-yloxy)-N-((3-nitrophenyl)sulfonyl)acetamide]: in test [3], the “RFI (%) (relative fluorescence intensity), Table 4” value stood at 67 ± 3%.

On to `COc1ccc2ccc(OCC(=O)NS(=O)(=O)c3ccc(OC)c(OC)c3)cc2c1` [Compound 25p, N-((3,4-Dimethoxyphenyl)sulfonyl)-2-((7-methoxynaphthalen-2-yl)oxy)acetamide], for which, in test [3], the “RFI (%) (relative fluorescence intensity), Table 4” value was determined as 23 ± 4%.

In the case of `COc1ccc2ccc(OCC(=O)NS(=O)(=O)c3cc(Cl)cc(Cl)c3)cc2c1` [Compound 25l, N-((3,5-Dichlorophenyl)sulfonyl)-2-((7-methoxynaphthalen-2-yl)oxy)acetamide], the “RFI (%) (relative fluorescence intensity), Table 4” value in test [3] is reported as 54 ± 6%.

As for `Cc1cc(C)c(S(=O)(=O)NC(=O)COc2ccc3c(c2)CCCC3)c(C)c1` [Compound 9f, N-(Mesitylsulfonyl)-2-((5,6,7,8-tetrahydronaphthalen-2-yl)oxy)acetamide], in test [3], the “EPAC1 binding potency / affinity in words” value is on record as “slightly decreased binding potency” and the “RFI (%) (relative fluorescence intensity), Table 1” value is on record as 77 ± 2%.

Take `Cc1cc(-c2ccnn2C)cc(S(=O)(=O)NC(=O)COc2ccc3ccccc3c2)c1` [Compound 25t, N-((3-Methyl-5-(1-methyl-1H-pyrazol-5-yl)phenyl)sulfonyl)-2-(naphthalen-2-yloxy)acetamide]: the “RFI (%) (relative fluorescence intensity), Table 4” value in test [3] was found to be 34 ± 5%.
